Reference: patent US8192962B2, “Processes for detecting toxic substances” (Daikin Industries, Ltd., priority 2001, dated 2012)

System: Genes belonging to other category
Test: DNA chip mRNA expression in yeast, genes belonging to other category (Table 9)
Type: cell-based, Saccharomyces cerevisiae S288C
Method in brief: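 Value is the scanned fluorescence intensity ratio of exposed versus chemical-free cells. Log-phase S288C yeast in YPD at 25° C. received one toxic substance for two hours, dosed to slow growth without killing; Cy3/Cy5-labeled cDNA from oligo-dT-purified mRNA was hybridized to a whole-genome chip at 65° C.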

S=C([S-])NCCNC(=S)[S-].[Zn+2] [(11), zinc N,N′-ethylenebis(dithiocarbamate)]
The level of expressed mRNA in the presence of chemical substance/The level of expressed mRNA in the absence of chemical substance (yeast gene YDR427W): 1.2
The level of expressed mRNA in the presence of chemical substance/The level of expressed mRNA in the absence of chemical substance (yeast gene YDR432W): 0.6
The level of expressed mRNA in the presence of chemical substance/The level of expressed mRNA in the absence of chemical substance (yeast gene YDR481C): 1.2
The level of expressed mRNA in the presence of chemical substance/The level of expressed mRNA in the absence of chemical substance (yeast gene YDR488C): 0.4
The level of expressed mRNA in the presence of chemical substance/The level of expressed mRNA in the absence of chemical substance (yeast gene YDR510W): 1.6
The level of expressed mRNA in the presence of chemical substance/The level of expressed mRNA in the absence of chemical substance (yeast gene YEL042W): 1.6
The level of expressed mRNA in the presence of chemical substance/The level of expressed mRNA in the absence of chemical substance (yeast gene YEL066W): 1.9
The level of expressed mRNA in the presence of chemical substance/The level of expressed mRNA in the absence of chemical substance (yeast gene YER009W): 1.4
The level of expressed mRNA in the presence of chemical substance/The level of expressed mRNA in the absence of chemical substance (yeast gene YER025W): 1.2
The level of expressed mRNA in the presence of chemical substance/The level of expressed mRNA in the absence of chemical substance (yeast gene YER039C): 1.2
The level of expressed mRNA in the presence of chemical substance/The level of expressed mRNA in the absence of chemical substance (yeast gene YER076C): 0.7
The level of expressed mRNA in the presence of chemical substance/The level of expressed mRNA in the absence of chemical substance (yeast gene YER078C): 1.3
The level of expressed mRNA in the presence of chemical substance/The level of expressed mRNA in the absence of chemical substance (yeast gene YER107C): 0.7
The level of expressed mRNA in the presence of chemical substance/The level of expressed mRNA in the absence of chemical substance (yeast gene YER130C): 0.9
The level of expressed mRNA in the presence of chemical substance/The level of expressed mRNA in the absence of chemical substance (yeast gene YER177W): 1.9
The level of expressed mRNA in the presence of chemical substance/The level of expressed mRNA in the absence of chemical substance (yeast gene YFL022C): 1.2
The level of expressed mRNA in the presence of chemical substance/The level of expressed mRNA in the absence of chemical substance (yeast gene YFL028C): 1.3
The level of expressed mRNA in the presence of chemical substance/The level of expressed mRNA in the absence of chemical substance (yeast gene YFL038C): 1.7
The level of expressed mRNA in the presence of chemical substance/The level of expressed mRNA in the absence of chemical substance (yeast gene YFL043C): 1.1
The level of expressed mRNA in the presence of chemical substance/The level of expressed mRNA in the absence of chemical substance (yeast gene YFR006W): 1.2
The level of expressed mRNA in the presence of chemical substance/The level of expressed mRNA in the absence of chemical substance (yeast gene YFR050C): 1.4
The level of expressed mRNA in the presence of chemical substance/The level of expressed mRNA in the absence of chemical substance (yeast gene YFR051C): 1.3
The level of expressed mRNA in the presence of chemical substance/The level of expressed mRNA in the absence of chemical substance (yeast gene YGL094C): 0.6
The level of expressed mRNA in the presence of chemical substance/The level of expressed mRNA in the absence of chemical substance (yeast gene YGL150C): 0.4
The level of expressed mRNA in the presence of chemical substance/The level of expressed mRNA in the absence of chemical substance (yeast gene YGL158W): 0.2
The level of expressed mRNA in the presence of chemical substance/The level of expressed mRNA in the absence of chemical substance (yeast gene YGL207W): 0.7
The level of expressed mRNA in the presence of chemical substance/The level of expressed mRNA in the absence of chemical substance (yeast gene YGL229C): 1.1
The level of expressed mRNA in the presence of chemical substance/The level of expressed mRNA in the absence of chemical substance (yeast gene YGR136W): 1.3
The level of expressed mRNA in the presence of chemical substance/The level of expressed mRNA in the absence of chemical substance (yeast gene YGR189C): 1.5
The level of expressed mRNA in the presence of chemical substance/The level of expressed mRNA in the absence of chemical substance (yeast gene YGR213C): 1.6
The level of expressed mRNA in the presence of chemical substance/The level of expressed mRNA in the absence of chemical substance (yeast gene YGR232W): 1.3
The level of expressed mRNA in the presence of chemical substance/The level of expressed mRNA in the absence of chemical substance (yeast gene YGR239C): 1.4
The level of expressed mRNA in the presence of chemical substance/The level of expressed mRNA in the absence of chemical substance (yeast gene YGR253C): 2.4
The level of expressed mRNA in the presence of chemical substance/The level of expressed mRNA in the absence of chemical substance (yeast gene YGR257C): 1.2
The level of expressed mRNA in the presence of chemical substance/The level of expressed mRNA in the absence of chemical substance (yeast gene YHR004C): 0.8
The level of expressed mRNA in the presence of chemical substance/The level of expressed mRNA in the absence of chemical substance (yeast gene YHR071W): 1.8
The level of expressed mRNA in the presence of chemical substance/The level of expressed mRNA in the absence of chemical substance (yeast gene YHR139C): 3.5
The level of expressed mRNA in the presence of chemical substance/The level of expressed mRNA in the absence of chemical substance (yeast gene YHR142W): 1.1
The level of expressed mRNA in the presence of chemical substance/The level of expressed mRNA in the absence of chemical substance (yeast gene YHR166C): 0.6
The level of expressed mRNA in the presence of chemical substance/The level of expressed mRNA in the absence of chemical substance (yeast gene YHR185C): 0.7
The level of expressed mRNA in the presence of chemical substance/The level of expressed mRNA in the absence of chemical substance (yeast gene YHR195W): 1.4
The level of expressed mRNA in the presence of chemical substance/The level of expressed mRNA in the absence of chemical substance (yeast gene YHR205W): 0.9
The level of expressed mRNA in the presence of chemical substance/The level of expressed mRNA in the absence of chemical substance (yeast gene YIL018W): 1.2
The level of expressed mRNA in the presence of chemical substance/The level of expressed mRNA in the absence of chemical substance (yeast gene YIL123W): 1.2
The level of expressed mRNA in the presence of chemical substance/The level of expressed mRNA in the absence of chemical substance (yeast gene YIL140W): 0.9
The level of expressed mRNA in the presence of chemical substance/The level of expressed mRNA in the absence of chemical substance (yeast gene YJL073W): 0.5
The level of expressed mRNA in the presence of chemical substance/The level of expressed mRNA in the absence of chemical substance (yeast gene YJL089W): 0.6
The level of expressed mRNA in the presence of chemical substance/The level of expressed mRNA in the absence of chemical substance (yeast gene YJL113W): 1.2
The level of expressed mRNA in the presence of chemical substance/The level of expressed mRNA in the absence of chemical substance (yeast gene YJL116C): 2.9
The level of expressed mRNA in the presence of chemical substance/The level of expressed mRNA in the absence of chemical substance (yeast gene YJL138C): 1.2
